This is an account of results in patent US9284322B2, “Nicotinic receptor compounds” (priority 2010, dated 2016).

SMILES strings stand for the structures. Read-outs that look alike come from different tables or passages of the source.

The subject of assay [1] is mice. Description: animal or person. It counts as in vivo, mouse. To be noted: Mus musculus, sc, 0.5 h; mice, s.c., rectal temperature 30 min after injection; read-out: ED50 Hypothermia. Here is the method:
Rectal temperature was measured by a thermistor probe (inserted 24 mm) and digital thermometer (Yellow Springs Instrument Co., Yellow Springs, Ohio). […] The difference in rectal temperature before and after treatment was calculated for each mouse. The ambient temperature of the laboratory varied from 21-24° C. from day to day.

The subject of assay [2] is mice. Description: animal or person. As to conditions: @ 10 mg/kg, mice, s.c. Type of assay: in vivo, mouse. Here is the method:
Mice were placed into a 10 cm wide glass cylinder on a hot plate (Thermojust Apparatus) maintained at 55.0° C. Two control latencies at least […] apart were determined for each mouse. The normal latency (reaction time) was 8 to 12 sec. Antinociceptive response was calculated as percent maximum possible effect (% MPE), where % MPE=[(test−control)/40−control)×100]. The reaction time was scored when the animal jumped or licked its paws.

Assay [3] relates to mice. Nature of the assay: animal or person. Type of assay: in vivo, mouse. To be noted: @ 10 mg/kg, mice, s.c. Here is the method:
(§1) Antinociception was assessed by the tail-flick method of F. E. D'Amour and D. L. Smith (J. Pharmacol. Exp. Ther. 1941, 72, 74-79). A control response (2-4 sec) was determined for each mouse before treatment, and a test latency was determined after drug administration. In order to minimize tissue damage, a maximum latency of 10 sec was imposed. Antinociceptive response was calculated as percent maximum possible effect (% MPE), where % MPE=[(test−control)/(10−control)]×100. Groups of eight to twelve animals were used for each dose and for each treatment. […] Eight to twelve mice were treated per dose and a minimum of four doses were performed for dose-response curve determination.
The source holds these as a separate data set.

Assay [4] concerns mice. Type of assay: in vivo, mouse. Here is the method: as §1
(§2) Table 6 provides data for a number of compounds of the invention that were tested according to the assays described above.

The subject of assay [5] is mice. Type of assay: in vivo, mouse. To be noted: antagonist test. Here is the method: (§3) Mice were placed into a 10 cm wide glass cylinder on a hot plate (Thermojust Apparatus) maintained at 55.0° C. Two control latencies at least […] apart were determined for each mouse. […] Antinociceptive response was calculated as percent maximum possible effect (% MPE), where % MPE=[(test−control)/40−control)×100]. The reaction time was scored when the animal jumped or licked its paws.
as §2

Assay [6] has as its system mice. Nature of the assay: Functional agonist tests (nAChR animal assays). As to conditions: mouse, in vivo. Here is the method: as §1, §3
(§4) Interruptions of the photocell beams (two banks of eight cells each) were then recorded for the next 10 min. Data were expressed as number of photocell interruptions.
Rectal temperature was measured by a thermistor probe (inserted 24 mm) and digital thermometer (Yellow Springs Instrument Co., Yellow Springs, Ohio). […]

Assay [7] concerns mice. Description: animal or person. Type of assay: in vivo, mouse. To be noted: Mus musculus, sc; mice, s.c., 5 min after administration, recorded for 10 min; read-out: ED50 Spontaneous Activity. Here is the method:
as §4

The term ED50 denotes the dose at which the effect has come halfway, by size or by number of responders. `c1cnc2cc3c(cc2n1)[C@@H]1CNC[C@H]3C1` [varenicline, reference compound]: the ED50 in the assay on mice [1] is 2.8 mg/kg; in the assay on mice [7] it was 2.1 mg/kg. Besides, the “Hot Plate, % effect at dose (ED50 column)” value with mice [2] came out at 10% @ 10. In addition, the “Tail Flick, % effect at dose (ED50 column)” value in the assay with mice [3] was 11% @ 10. Moreover, in the assay on mice [4] (mice, antagonist test), the “AD50 Tail Flick” value stood at 0.0002 mg/kg. Moreover, the “functional antagonism in the tail-flick test (in words)” value in the assay on mice [4] (mouse, in vivo) is “functional antagonists”. In addition, the “AD50 Hot Plate” value with mice [5] amounted to 0.47 mg/kg. Also, in the assay on mice [6], the “activity in one or more of the functional agonist tests (in words)” value is given as “partial agonists”.
